Entries after “also recorded” stand apart in the source; their conditions may differ.
Tests used:
[1] = tested on: tubulin detyrosination in human cells; assay: Immunofluorescent (high content screening) detection of tubulin detyrosination in human cells; format: cell-based
Description: FIG. 4: Immuofluorescent staining of wild type human cells and VASH double knock-outs.
FIG. 5: Immunofluorescent method to detect levels of tubulin detyrosination in human cells. Dose dependent reduction of tubulin detyrosination in human cells is observed after 2 hours treatment with all SVCs. In cellulo IC50 measure for SVC_03=10 nM.
FIG. 30: Immunofluorescent method to detect levels of tubulin detyrosination in human cells. Dose dependent reduction of tubulin detyrosination in human cells is observed after 2 hours treatment with all SVCs.
Since to date no small molecule has been designed to inhibit the enzyme VASH that is responsible for tubulin detyrosination, we engineered various compounds based on the natural substrate of the enzyme. We undertook an extensive analysis of the human proteome and sought to identify human proteins that encoded a -EEY sequence at the very C-terminal. Only 3 proteins matched the criteria including alpha-tubulin. Therefore, we developed 5 compounds that all share a tyrosine in the structure that is essential for the specificity (FIG. 2). […] Using computer-aided drug discovery and iterative cycles of medicinal chemistry work-up followed by ELISA (in vitro) and HCS (in cellulo) testing, we gathered a SAR database containing new chemical entities. The potency and selectivity of these compound is considered within pharmaceutical standards for further development. […] Next, using a human cell-line we assayed the activity of the compound SVC_01 in a cellular system that further gives indication on penetration and cellular efficacy. Following 2 hours exposure of the human cells to the SVC_01 compound, we fixed and analysed by specific immunofluorescence the labelling of detyrosinated tubulin but also that of another posttranslational modification termed acetylation (FIG. 4). […] Although specific, SVC_01 was used at micromolar concentration to obtain full inhibition. With the objective to improve cellular IC50 of our SVCs, we designed compounds that have better cell penetration specifications.

[2] = biological target: recombinant human VASH1 (hVASH1) and SVBP complex (Homo sapiens, UniProt Q7L8A9); assay: In vitro detyrosination assay (ELISA-based) with recombinant human VASH1/SVBP; format: biochemical; conditions: for inhibition of detyrosinase activity of recombinant human VASH1: recombinant enzyme, dose-response
Description: FIG. 3: In vitro detyrosination assays using recombinant human VASH1 (hVASH1) and SVBP complex. ELISA-based method to measure detyrosinase activity. Dose-response allows for accurate determination of the inhibition of the compounds on the target.
We undertook an extensive analysis of the human proteome and sought to identify human proteins that encoded a -EEY sequence at the very C-terminal. […] Following 2 hours exposure of the human cells to the SVC_01 compound, we fixed and analysed by specific immunofluorescence the labelling of detyrosinated tubulin but also that of another posttranslational modification termed acetylation (FIG. 4).

[3] = tested on: primary cardiomyocytes isolated from ZSF1-Lean or ZSF1 Obese rats; assay: Nanoindentation transverse stiffness; format: cell-based, rat
Source text: FIG. 17: Reduced transverse stiffness upon VASH inhibition or TTL overexpression in primary cardiomyocytes isolated from ZSF1-Lean or ZSF1 Obese rats. A) Stiffness (elastic modulus) plotted as a function of nanoindentation velocity in ZSF1-Lean and B) ZSF1-Obese myocytes. C) Quantification of Emin (elastic stiffness), Emax (stiffness at maximal velocity of indentation) and D) DeltaE (indicator of viscoelasticity) in ZSF1-Lean and Obese cardiomyocytes.
Mechanical properties at the microscopic scale were measured using nano-indentation (Piuma; Optics11, Amsterdam, The Netherlands) equipped with a dynamic mechanical analysis package (DMA). Freshly isolated cardiomyocytes were attached to glass-bottom dishes coated with MyoTak (IonOptix) in NT solution at 1 mM Ca2+. A spherical indentation probe with a radius of 4.5 μm and a stiffness of 0.1 N/m was used to indent the myocytes to a depth of 1-2 μm and the probe was then oscillated in a sinusoidal pattern at a frequency of 0.05, 0.1, 0.5, 1, 2, 5, 10, 20 and 50 Hz and an amplitude of 1 μm. The Piuma Data Viewer version 2.0 was used to convert DMA indentation depth and cantilever deflection into E′ and E″ and the magnitude of the elastic modulus was determined by E^2=E′^2+E″^2 A Poisson's ratio (n) of 0.5 was assumed and the average of E in each experimental condition was determined as a function of indentation speed. […]

[4] = tested on: human adult cardiomyocytes; assay: mRNA expression of detyrosination-tyrosination cycle genes in human adult cardiomyocytes; format: cell-based; conditions: vs vehicle
Description: FIG. 34: human adult cardiomyocytes are treated with vehicle or SVC-01 and collected for analysis of mRNA expression of genes involved in the detyrosination-tyrosination cycle.
Specificity of SVC-01 was assayed using both human VASH1 and VASH2 recombinant enzymes. […] Finally, to ensure that regulation of other genes involved in the detyrosination-tyrosination cycle is not affected, we analysed gene expression of all relevant and associated genes following treatment with SVC-02 in adult human cardiomyocytes. We found no alteration of VASH1, VASH2, MATCAP, TTL or SVBP gene expression between vehicle control and SVC-02 treated cells (FIG. 34).

[5] = 2 hours exposure, immunofluorescence

recombinant human VASH1 (hVASH1) and SVBP complex, sequence (Q7L8A9 whole entry): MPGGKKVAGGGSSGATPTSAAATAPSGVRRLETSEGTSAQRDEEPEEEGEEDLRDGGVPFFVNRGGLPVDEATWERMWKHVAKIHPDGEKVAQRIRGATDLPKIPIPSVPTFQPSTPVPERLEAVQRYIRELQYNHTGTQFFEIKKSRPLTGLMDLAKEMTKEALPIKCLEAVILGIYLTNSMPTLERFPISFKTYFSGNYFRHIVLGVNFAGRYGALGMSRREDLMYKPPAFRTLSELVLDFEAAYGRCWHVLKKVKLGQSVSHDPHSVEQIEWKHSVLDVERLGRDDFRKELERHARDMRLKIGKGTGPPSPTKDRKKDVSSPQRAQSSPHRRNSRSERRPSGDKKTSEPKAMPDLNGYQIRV
recombinant human VASH1 (hVASH1) and SVBP complex, sequence (Q8N300 whole entry partner): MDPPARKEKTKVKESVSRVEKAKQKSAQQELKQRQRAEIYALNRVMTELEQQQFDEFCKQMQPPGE

Row | better inhibition compared to Epo-Y [2] | IC50 on human cells ([1]; human cells) | SMILES | level of acetylated tubulin in human cells [1, 5] | level of tubulin detyrosination in human cells [1, 5] | inhibition of detyrosinase activity of recombinant human VASH1 [2] | transverse viscoelastic stiffness [3] | expression of VASH1, VASH2, MATCAP, TTL or SVBP genes [4]
1 | about 100 × |  | O=C(O)CCC[C@H](NC(=O)[C@H]1O[C@@H]1C(=O)C[C@@H](Cc1ccc(OCc2ccccc2)cc1)C(=O)O)C(=O)NCCc1ccccc1 [SVC_01] | remain unaffected; also recorded: without affecting the level of acetylation | background signal comparable to that observed in VASH 2KO cells; also recorded: completely reduced the level of tubulin detyrosination | efficiently inhibited; also recorded: efficient in inhibiting | viscoelastic stiffness is reduced | did not alter expression
2 |  | low nanomolar | CCOC(=O)[C@H](Cc1ccc(OCC)cc1)NC(=O)[C@H]1O[C@@H]1C(=O)N[C@@H](Cc1ccc(OCC)cc1)C(=O)OCC [SVC_02] |  |  | inactive in its prodrug form; also recorded: inactive toward the therapeutic target |  | no alteration

Source: patent US20260199284A1, “SPECIFIC VASH COMPOUNDS (SVC) INHIBITORS FOR HEART DISEASES” (MT ACT, priority 2023, published 2026)
